Results: US9540381B2, “Anti-angiogenesis compound, intermediate and use thereof” (Guangzhou KangRui Biological Pharmaceutical Technology Co., …, priority 2013, dated 2017)
Entries after “also recorded” stand apart in the source; their conditions may differ.

What was measured:
VEGFR2 = biological target: T1, VEGFR2 (Homo sapiens, UniProt P35968); test: In vitro inhibition test on VEGFR2 in HUVECs (anti-phosphorylated VEGFR2 blot); type: cell-based; settings: 10 nM, 100 nM and 1 μM, 50 ng/ml VEGF
T1 construct: endogenous in cells; host or cells: primary HUVECs P3-P5
Experimental: The experimental method of detecting the inhibition of the compounds of the present invention on VEGFR2 kinase is as follows:
1) The primary cultured human umbilical vein endothelial cells (HUVECs) P3-P5 were transferred to 6 well plate, 2×10^5 cells per well;
2) compounds 2-1, 2-2 and 2-4 of the present invention (the concentrations are 10 nM, 100 nM and 1 μM for each compound) were added when the cells grow to 70-80%, VEGF was a control, incubation for 30 min;
3) 50 ng/ml VEGF (cell Signaling company, US) was added, stimulating for 10 min;
4) nondenature lysis buffer was added to terminate the reaction, and cell lysis buffer was collected to carry out protein quantification;
5) SDS-PAGE electrophoresis, transfer to nitrocellulose membrane, the membrane was cut off and sealed in phosphate tween buffer, TTBS buffer (Tris-buffered saline 0.01% Tween 20, cell Signaling company, US, PH8.0) formulated from 5% skimmed milk for 2 hours; 6) wash the membrane, seal at 4° C. overnight by use of an anti-phosphorylated VEGFR2 antibody (1:1000 dilution, cell Signaling company, US); 7) on the second day after washing membrane, horse radish peroxidase marked goat anti-rabbit second antibody (cell Signaling company, US) was incubated with the membrane at room temperature for 1 hour; 8) develop with chemiluminescence kit (Millipore company) after washing membrane, and take photos.

[1] = test system: vessel development of the FLK1-GFP transgenic danio rerio; test: Inhibition test on vascular development of Danio rerio; type: in vivo; settings: for inhibition at 0.1 µM / inhibition at 1 µM / inhibition at 5 µM / inhibition at 10 µM / inhibition at 20 µM / inhibition at 40 µM / inhibition at 100 µM: Danio rerio, after 24 hours, n = 5, read-out: inhibition rate on the development of vertebral vessel; for inhibition at 0.1 µM: 100 nM; for inhibition effect on the vessel development of the danio rerio (in words): Table 1 and FIG. 7
Experimental: Female fish can spawn 200-300 […], and the fertilization and embryonic development processes are conducted in vitro. They can grow up within 24 hours, and the embryo is transparent, which is suitable for observing the change of intracorporal organs and tissues. These characteristics make the danio rerio become to be one of the five fish laboratory animals accepted by the international organization for standardization. Currently, the danio rerio is widely used in human disease studies, especially used in cardiovascular system studies. The danio rerio can be used for screening the influence of small molecular compounds on angiogenesis. Experimental Method: This experiment uses FLK1-GFP transgenic danio rerio as an animal model which is generally used for screening the influence of compounds on angiogenesis. Vessel can be in vivo observed under fluorescence microscope (Suk-Won Jin, 2005, Development). The selected embryo of the postnatal FLK1-GFP transgenic danio rerio was placed into a culture dish and incubated for 3-5 days in an incubator at 28° C. […] Examine the developmental condition of the vertebral vessel after 24 hours and take photo by use of the fluorescence microscope.

P38-α = biological target: T2, P38-α (Homo sapiens, UniProt Q16539); test: Inhibition specificity, P38-α; type: biochemical; settings: 5000 nM, average of two tests; read-out: Average Inhibition Rate (%) P38-α
T2 construct: purchased AMPHORA

corneal angiogenesis = test: Mice corneal chemical burn model; settings: 100 uM subconjunctival injection then drops twice a day, 7 days
choroidal angiogenesis = test: Laser-induced choroidal angiogenesis (CNV) animal model; type: in vivo, c57/BL mice; settings: 1 uM injected into the eye after laser, 5 days
Experimental: The […]57/BL (Jax Lab, US), and the experiment is conducted on laser-induced Choroidal Angiogenesis (CNV) animal model. This model is a widely used animal model used for studying the influence of a medicament on CNV development of wet macular degeneration. […] Only the laser points, which were observed as bubble indicating the fracture of Bruch membrane, were considered to be studied. Inject immediately after laser implementation: the right eye was injected 1 uM compound 2-2, and the left eye was injected PBS having the same volume as the medicament as a control. Kill the animal 5 days after injection and obtain the eyeball. After removing the anterior segment, vitreous body and retina, prepare flat mounts of choroid and meanwhile dye with isolectin. Take photos by Zeiss fluorescence microscope system and measure CNV area.

T2 sequence (Q16539 whole entry): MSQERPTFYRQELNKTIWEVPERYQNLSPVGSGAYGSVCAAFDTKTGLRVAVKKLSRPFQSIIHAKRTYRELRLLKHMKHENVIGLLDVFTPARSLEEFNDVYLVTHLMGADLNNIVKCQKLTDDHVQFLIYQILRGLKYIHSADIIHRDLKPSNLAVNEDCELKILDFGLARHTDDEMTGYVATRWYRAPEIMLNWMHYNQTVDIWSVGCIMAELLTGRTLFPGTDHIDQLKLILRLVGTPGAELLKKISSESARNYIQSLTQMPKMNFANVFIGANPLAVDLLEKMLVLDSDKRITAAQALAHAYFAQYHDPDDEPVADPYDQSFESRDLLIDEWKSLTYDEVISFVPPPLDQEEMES
T1 sequence (P35968 20-1356): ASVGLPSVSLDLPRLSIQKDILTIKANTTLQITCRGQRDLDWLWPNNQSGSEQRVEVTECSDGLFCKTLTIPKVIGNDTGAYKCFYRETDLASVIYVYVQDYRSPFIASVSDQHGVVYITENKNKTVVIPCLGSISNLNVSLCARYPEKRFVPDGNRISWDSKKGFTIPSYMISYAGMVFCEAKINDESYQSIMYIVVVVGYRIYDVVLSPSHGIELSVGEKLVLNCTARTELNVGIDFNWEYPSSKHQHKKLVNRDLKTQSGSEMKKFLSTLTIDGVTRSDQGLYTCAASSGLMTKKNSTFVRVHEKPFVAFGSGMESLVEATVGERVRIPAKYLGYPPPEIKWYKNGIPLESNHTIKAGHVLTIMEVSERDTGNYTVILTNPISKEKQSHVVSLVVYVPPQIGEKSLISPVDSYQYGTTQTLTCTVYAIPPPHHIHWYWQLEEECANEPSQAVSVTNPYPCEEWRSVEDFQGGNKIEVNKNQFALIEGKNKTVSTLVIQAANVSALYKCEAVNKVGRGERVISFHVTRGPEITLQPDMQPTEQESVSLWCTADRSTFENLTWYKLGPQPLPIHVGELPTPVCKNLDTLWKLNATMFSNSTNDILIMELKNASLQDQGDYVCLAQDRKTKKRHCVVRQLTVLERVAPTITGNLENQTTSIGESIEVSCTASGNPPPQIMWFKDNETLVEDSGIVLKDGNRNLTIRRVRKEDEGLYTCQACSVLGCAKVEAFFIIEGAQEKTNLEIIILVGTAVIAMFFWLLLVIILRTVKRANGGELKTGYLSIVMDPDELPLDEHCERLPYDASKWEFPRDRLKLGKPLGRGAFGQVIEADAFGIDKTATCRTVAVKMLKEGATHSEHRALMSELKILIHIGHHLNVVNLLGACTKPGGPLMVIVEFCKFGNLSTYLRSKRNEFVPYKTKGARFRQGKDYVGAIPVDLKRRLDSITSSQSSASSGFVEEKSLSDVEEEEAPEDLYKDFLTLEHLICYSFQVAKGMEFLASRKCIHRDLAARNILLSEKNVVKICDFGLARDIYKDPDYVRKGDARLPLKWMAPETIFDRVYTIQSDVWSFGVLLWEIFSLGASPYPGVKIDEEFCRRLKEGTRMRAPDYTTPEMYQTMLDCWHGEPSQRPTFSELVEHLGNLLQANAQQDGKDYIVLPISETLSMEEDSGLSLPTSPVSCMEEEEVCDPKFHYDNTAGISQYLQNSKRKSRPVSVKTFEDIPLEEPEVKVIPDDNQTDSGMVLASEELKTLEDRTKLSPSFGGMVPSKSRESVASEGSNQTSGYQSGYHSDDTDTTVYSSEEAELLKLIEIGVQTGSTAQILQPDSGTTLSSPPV

SMILES: Nc1cc(Oc2ccc3c(C(=O)Nc4cccc(C(F)(F)F)c4)cccc3n2)ncn1 [Compound 2-1]
- inhibition of VEGFR2 (in words, FIG. 8) (VEGFR2): can inhibit VEGFR2
- inhibition at 0.1 µM [1]: 10%
- inhibition at 1 µM [1]: 50%
- inhibition at 5 µM [1]: 100%
- inhibition at 10 µM [1]: 100%
- inhibition at 20 µM [1]: 100%
- inhibition at 40 µM [1]: 100%
- inhibition at 100 µM [1]: 100%
- inhibition effect on the vessel development of the danio rerio (in words) [1]: have inhibition effect on the vessel development of the danio rerio
- inhibition at 5 µM (P38-α): 16.9%

SMILES: Nc1nccc(Oc2ccc3c(C(=O)Nc4cccc(C(F)(F)F)c4)cccc3n2)n1 [Compound 2-2]
- effect on corneal angiogenesis and bleeding (in words, FIG. 11) (corneal angiogenesis): obviously reduces angiogenesis and bleeding
- inhibition of VEGFR2 (in words, FIG. 8) (VEGFR2): can inhibit VEGFR2
- inhibition of choroidal angiogenesis (in words, FIG. 9) (choroidal angiogenesis): could obviously inhibit the choroidal angiogenesis; also recorded: obviously inhibiting choroidal angiogenesis
- inhibition at 0.1 µM [1]: 50%
- inhibition at 1 µM [1]: 100%
- inhibition at 5 µM [1]: 100%
- inhibition at 10 µM [1]: 100%
- inhibition at 20 µM [1]: 100%
- inhibition at 40 µM [1]: 100%
- inhibition at 100 µM [1]: 100%
- inhibition effect on the vessel development of the danio rerio (in words) [1]: have inhibition effect on the vessel development of the danio rerio
- inhibition at 5 µM (P38-α): ~80%
